US20080050764A1, “Method and Apparatus for Measuring Enviromental Allergen” (Japan Science and Technology Agency, priority 2003, published 2008)
“Also recorded” adds a separate entry of the source. * marks the point of attachment. AMC = Cc1cc(=O)oc2cc(N*)ccc12; Boc = CC(C)(C)OC(=O)*

Columns and labels:
[1] = tested on: Cedar Pollen (Cedar Pollen-Cj Japanese Cedar); experiment: Measurement of cedar pollen with protease substrates, fluorescence (Example 7); assay type: biochemical; details: substrate 10 mM in DMSO, 37° C. 15 minutes, excitation 355 nm
Procedure: • Cedar Pollen (Cedar Pollen-Cj Japanese Cedar) (produced by LSL) • Leu-MCA and Boc-Val-Leu-Lys-MCA as protease substrates (both of them were produced by PEPTIDE INSTITUTE INC)
Cedar pollen was suspended in phosphate buffer to a concentration of 1 mg/ml and the suspension was diluted with phosphate buffer as appropriate. Each of the dilutions in an amount of 45 μL was mixed with 5 μL of the substrate dissolved in DMSO to a concentration of 10 mM, and the resulting mixture was incubated at 37° C. for 15 minutes. Using a plate reader, excitation was carried out at a wavelength of 355 nm, and fluorescence intensity at 460 nm was measured.

[2] = tested on: Mite Extract Df (Mite dermatophagoides farinae); experiment: Protease substrate cleavage by mite extract, fluorescence (Example 9); assay type: biochemical; details: substrate 10 mM in DMSO, room temperature overnight, excitation 355 nm
Procedure: • Mite Extract Df (Mite dermatophagoides farinae) (obtained by extracting mites with phosphate buffer and freeze-drying the soluble fragment) (produced by LSL) • Protease Substrates (Met-MCA, Boc-Gln-Ala-Arg-MCA, Boc-Val-Leu-Lys-MCA, Bz-Arg-MCA, Glt-Ala-Ala-Phe-MCA (Glt means glutaryl) (All of them were produced by PEPTIDE INSTITUTE INC)
In phosphate buffer or water, mites were suspended to a concentration of 1 mg/ml, and the suspension was diluted with phosphate buffer as appropriate. Each of the dilutions in an amount of 50 μL was mixed with 5 μL of the substrate dissolved in DMSO to a concentration of 10 mM, and the resulting mixture was incubated at room temperature overnight. Using a plate reader, excitation was carried out at a wavelength of 355 nm, and fluorescence intensity at 460 nm was measured.

Cedar Pollen Extract = experiment: Quantification of cedar pollen extract with protease substrates, fluorescence (Example 8); assay type: biochemical, Japanese Cedar; details: substrate 10 mM in DMSO, 37° C. 15 minutes, excitation 355 nm
Procedure: • Cedar Pollen Extract (Cedar Pollen Extrace-CJ) (produced by LSL) • Leu-MCA and Boc-Val-Leu-Lys-MCA as protease substrates (both of them were produced by PEPTIDE INSTITUTE INC)
The cedar pollen extract was the centrifugation supernatant obtained by stirring cedar pollen in 0.125 M NaHCO3 (pH8) for 16 hours, and lightly homogenizing the mixture, followed by centrifugation. The extract was suspended in 5 mM borate buffer (pH8.0) containing 0.9% NaCl to a concentration of 666 μg/ml, and the resulting mixture was diluted with phosphate buffer as appropriate. Each of the samples in an amount of 45 μL was mixed with 5 μL of the substrate dissolved in DMSO to a concentration of 10 mM, and the resulting mixture was incubated at 37° C. for 15 minutes. Using a plate reader, excitation was carried out at a wavelength of 355 nm, and fluorescence intensity at 460 nm was measured.

Molecule | reaction of substrate with cedar pollen (fluorescence intensity at 460 nm) [1] | cleavage of substrate by mite antigen (fluorescence intensity at 460 nm) [2] | reaction of substrate with cedar pollen extract (fluorescence intensity at 460 nm) (Cedar Pollen Extract)
Cl.NC(N)=NCCCC(NC(=O)c1ccccc1)C(=O)Nc1ccc([N+](=O)[O-])cc1 (racemic) [Bz-DL-Arg-pNA.HCl] | reacts |  | 
Cc1cc(=O)oc2cc(NC(=O)[C@H](CCCNC(=N)N)NC(=O)c3ccccc3)ccc12 [Bz-Arg-MCA] |  | not substantially cleaved | 
Cc1cc(=O)oc2cc(NC(=O)C(N)CC(C)C)ccc12 (stereo not drawn) [Leu-MCA] | reacts |  | 
CSCCC(N)C(=O)Nc1ccc2c(C)cc(=O)oc2c1 (stereo not drawn) [Met-MCA] |  | effectively measured | 
Boc-Gln-Ala-Arg-{AMC} |  | effectively measured | 
Boc-Val-Leu-Lys-{AMC} | fluorescence was not dependent on the amount of cedar pollen; also recorded: does not react | effectively measured; also recorded: reacts | fluorescence was not dependent on the amount of cedar pollen
Glt-Ala-Ala-Phe-MCA |  | not substantially cleaved | 
